Test results reported in patent publication US12679878B2, “CRF2 receptor agonists and their use in therapy” (SANOFI, priority 2020, dated 2026).
Read-outs that look alike come from different tables or passages of the source. Each block holds one molecule with its values, some of them ahead of it. Starred links: 1 amine or outer side, 2 acyl side, 3 side chain; linkers in the order of their positions; H or OH if unused. Non-standard residues stand in square brackets, D forms with d. Residues, ends and D or L forms follow the SMILES beside them. Groups on a side chain read outwards from the residue. No end group written: not given here. *: point of attachment. C20 diacid = O=C(O)CCCCCCCCCCCCCCCCCCC(=O)*; C18 diacid = O=C(O)CCCCCCCCCCCCCCCCC(=O)*; γGlu = O=C(O)[C@H](CCC(=O)[*:2])N[*:1]; AEEA = NCCOCCOCC(=O)O; Aib = CC(C)(N)C(=O)O

Key:
[1] = target: T1, CRF1R receptor (Homo sapiens, UniProt P34998); experiment: cAMP activity at anti-target CRF1R, CRF1R-overexpression CHO cell line (Example 9); type: cell-based; details: CRF1R-overexpression CHO cell line; for EC50: 0% HSA; for Emax: read-out: Emax (%)
T1 construct: host or cells: CHO-K1 clone 2
T1 sequence (P34998 24-415): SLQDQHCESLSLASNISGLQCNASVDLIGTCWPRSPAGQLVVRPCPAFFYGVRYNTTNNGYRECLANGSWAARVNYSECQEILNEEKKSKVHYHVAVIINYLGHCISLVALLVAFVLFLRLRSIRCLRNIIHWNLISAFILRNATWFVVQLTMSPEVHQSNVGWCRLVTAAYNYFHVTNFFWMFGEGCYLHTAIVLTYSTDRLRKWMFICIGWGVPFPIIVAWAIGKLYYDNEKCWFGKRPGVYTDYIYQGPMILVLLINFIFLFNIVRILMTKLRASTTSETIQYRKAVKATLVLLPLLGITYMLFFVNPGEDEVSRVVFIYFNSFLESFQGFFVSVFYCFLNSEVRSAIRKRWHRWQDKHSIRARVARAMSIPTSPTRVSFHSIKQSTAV
Method: Cells were grown in a T175 culture flask placed at 37° C. to near confluence in medium (DMEM/10% FBS) and collected in 2 ml vials in cell culture medium containing 10% DMSO in a concentration of 10-50 million cells/ml. Each vial contained 1.8 ml cells. The vials were slowly frozen to −80° C. in isopropanol and then transferred in liquid nitrogen for storage. Prior to use, frozen cells were thawed quickly at 37° C. and washed (5 min at 900 rpm) with 20 ml cell buffer (1×HBSS; 20 mM HEPES; 0% or 0.1% HSA). Cells were resuspended in assay buffer (cell buffer plus 2 mM IBMX) and adjusted to a cell density of 1 million cells/ml. For measurement, 5 μl cells (final […]) and 5 μL of test compound were added to a 384-well plate, followed by incubation for 30 minutes at room temperature.
The CAMP content of cells was determined using a kit from Cisbio Corp. (cat. no. 62AM4PEC) based on HTRF (Homogenous Time Resolved Fluorescence). […] The percent activity value (E %) was calculated by setting 1000 nM of urocortin 2 (UCN2) as 100%.
A CRF1R-overexpression CHO cell line was used in this study.

[2] = target: T2, human CRF2α receptor (Homo sapiens, UniProt Q13324); experiment: cAMP agonism at human CRF2 α receptor in TeloHEAC cells (Example 7); type: cell-based; details: cAMP HTRF, TeloHEAC cells stably expressing human CRF2 α
T2 construct: expressed in transfected cells; host or cells: TeloHEAC
T2 sequence (Q13324 1-411): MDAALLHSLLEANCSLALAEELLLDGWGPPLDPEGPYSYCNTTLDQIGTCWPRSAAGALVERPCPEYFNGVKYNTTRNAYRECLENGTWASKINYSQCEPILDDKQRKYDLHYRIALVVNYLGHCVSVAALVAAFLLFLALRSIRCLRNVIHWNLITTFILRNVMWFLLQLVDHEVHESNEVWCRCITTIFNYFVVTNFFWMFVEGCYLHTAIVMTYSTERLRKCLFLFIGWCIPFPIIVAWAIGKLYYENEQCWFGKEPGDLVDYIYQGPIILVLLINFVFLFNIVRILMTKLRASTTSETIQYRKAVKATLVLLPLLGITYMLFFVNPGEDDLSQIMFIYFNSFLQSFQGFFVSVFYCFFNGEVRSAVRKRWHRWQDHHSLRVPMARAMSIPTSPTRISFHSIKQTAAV
In short: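 Cryopreserved cells are thawed, washed and resuspended in IBMX-containing (2 mM) HEPES-buffered HBSS with or without 0.1% HSA. Compound incubation runs 30 min at room temperature with 2000 cells per well, then cAMP is measured by time-resolved FRET. Potency is expressed as EC50, efficacy relative to urocortin 2 at 1000 nM.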

[3] = target: T3, CRF1R receptor (anti-target) (UniProt P34998 24-415, limits assumed); experiment: cell-based or functional assay
T3 sequence (looked up): T1 sequence (P34998 24-415)

[4] = 0% HSA, read-out: EC50 [nM], 0% HSA
[5] = 0.1% HSA, read-out: EC50 [nM], 0.1% HSA

Molecule: CC[C@H](C)[C@H](NC(C)=O)C(=O)N[C@H](C(=O)N[C@@H](CC(C)C)C(=O)N[C@@H](CO)C(=O)N[C@@H](CC(C)C)C(=O)N[C@@H](CC(=O)O)C(=O)N[C@@H](C(=O)N1CCC[C@H]1C(=O)N[C@H](C(=O)N[C@@H](CCCCN)C(=O)N[C@@H](CC(C)C)C(=O)N[C@@H](CCCCNC(=O)COCCOCCNC(=O)COCCOCCNC(=O)CC[C@H](NC(=O)CCCCCCCCCCCCCCCCC(=O)O)C(=O)O)C(=O)N[C@@H](CCC(N)=O)C(=O)N[C@H](C(=O)N[C@@H](CC(C)C)C(=O)N[C@@H](CC(C)C)C(=O)N[C@@H](CCC(=O)O)C(=O)N[C@@H](CCC(N)=O)C(=O)N[C@@H](CCC(=O)O)C(=O)N[C@@H](CCCNC(=N)N)C(=O)N[C@@H](CCC(N)=O)C(=O)N[C@@H](CCC(=O)O)C(=O)NC(C)(C)C(=O)N[C@@H](CCC(=O)O)C(=O)N[C@@H](CCCNC(=N)N)C(=O)N[C@@H](CCC(=O)O)C(=O)N[C@@H](CCC(N)=O)C(=O)N[C@@H](C)C(=O)N[C@@H](CCC(=O)O)C(=O)N[C@@H](CCCCN)C(=O)N[C@@H](CC(N)=O)C(=O)N[C@@H](CCC(=O)O)C(=O)N[C@@H](CCC(N)=O)C(=O)N[C@H](C(=O)N[C@@H](CC(C)C)C(=O)N[C@@H](CCC(=O)O)C(=O)N[C@@H](CCC(N)=O)C(=O)N[C@H](C(N)=O)C(C)C)[C@@H](C)CC)[C@@H](C)CC)[C@@H](C)CC)C(C)C)C(C)C [compound 161] (Ac-IVLSLD[dV]PIKLK([AEEA-AEEA-γGlu-C18 diacid])QILLEQERQE[Aib]EREQAEKNEQILEQV-NH2)
- EC50 [1]: > 1000 nM
- Emax [1]: 3.42%
- EC50 [2, 4]: 36 nM
- EC50 [2, 5]: 977 nM

Molecule: CC[C@H](C)[C@H](N)C(=O)N[C@H](C(=O)N[C@@H](CC(C)C)C(=O)N[C@@H](CO)C(=O)N[C@@H](CC(C)C)C(=O)N[C@@H](CC(=O)O)C(=O)N[C@@H](C(=O)N1CCC[C@H]1C(=O)N[C@H](C(=O)N[C@@H](CCCCN)C(=O)N[C@@H](CC(C)C)C(=O)N[C@@H](CCCCNC(=O)COCCOCCNC(=O)COCCOCCNC(=O)CC[C@H](NC(=O)CC[C@H](NC(=O)CCCCCCCCCCCCCCCCC(=O)O)C(=O)O)C(=O)O)C(=O)N[C@@H](CCC(N)=O)C(=O)N[C@H](C(=O)N[C@@H](CC(C)C)C(=O)N[C@@H](CC(C)C)C(=O)N[C@@H](CCCCN)C(=O)N[C@@H](CCC(N)=O)C(=O)N[C@@H](CCC(=O)O)C(=O)N[C@@H](CCCNC(=N)N)C(=O)N[C@@H](CCC(N)=O)C(=O)N[C@@H](CCCCN)C(=O)NC(C)(C)C(=O)N[C@@H](CCC(N)=O)C(=O)N[C@@H](CCCNC(=N)N)C(=O)N[C@@H](CCC(=O)O)C(=O)N[C@@H](CCC(N)=O)C(=O)N[C@@H](C)C(=O)N[C@@H](CCC(=O)O)C(=O)N[C@@H](CCCCN)C(=O)N[C@@H](CC(N)=O)C(=O)N[C@@H](CCCCN)C(=O)N[C@@H](CCC(N)=O)C(=O)N[C@H](C(=O)N[C@@H](CC(C)C)C(=O)N[C@@H](C)C(=O)N[C@@H](CCC(N)=O)C(=O)N[C@H](C(N)=O)C(C)C)[C@@H](C)CC)[C@@H](C)CC)[C@@H](C)CC)C(C)C)C(C)C [compound 171] (H-IVLSLD[dV]PIKLK([AEEA-AEEA-γGlu-γGlu-C18 diacid])QILLKQERQK[Aib]QREQAEKNKQILAQV-NH2)
- EC50 [1]: > 1000 nM
- Emax [1]: 7.54%
- EC50 [2, 4]: 0.17 nM
- EC50 [2, 5]: 2.62 nM

Results, then the molecule that gave them:

- EC50 [1]: > 1000 nM
- Emax [1]: 25.6%
- EC50 [2, 4]: 0.04 nM
- EC50 [2, 5]: 2.76 nM
Molecule: CC[C@H](C)[C@H](N)C(=O)N[C@H](C(=O)N[C@@H](CC(C)C)C(=O)N[C@@H](CO)C(=O)N[C@@H](CC(C)C)C(=O)N[C@@H](CC(=O)O)C(=O)N[C@@H](C(=O)N1CCC[C@H]1C(=O)N[C@H](C(=O)N[C@@H](CCCCN)C(=O)N[C@@H](CC(C)C)C(=O)N[C@@H](CCCCNC(=O)COCCOCCNC(=O)COCCOCCNC(=O)CC[C@H](NC(=O)CC[C@H](NC(=O)CCCCCCCCCCCCCCCCCCC(=O)O)C(=O)O)C(=O)O)C(=O)N[C@@H](CCC(N)=O)C(=O)N[C@H](C(=O)N[C@@H](CC(C)C)C(=O)N[C@@H](CC(C)C)C(=O)N[C@@H](CCCCN)C(=O)N[C@@H](CCC(N)=O)C(=O)N[C@@H](CCC(=O)O)C(=O)N[C@@H](CCCNC(=N)N)C(=O)N[C@@H](CCC(N)=O)C(=O)N[C@@H](CCCCN)C(=O)NC(C)(C)C(=O)N[C@@H](CCC(N)=O)C(=O)N[C@@H](CCCNC(=N)N)C(=O)N[C@@H](CCC(=O)O)C(=O)N[C@@H](CCC(N)=O)C(=O)N[C@@H](C)C(=O)N[C@@H](CCC(=O)O)C(=O)N[C@@H](CCCCN)C(=O)N[C@@H](CC(N)=O)C(=O)N[C@@H](CCCCN)C(=O)N[C@@H](CCC(N)=O)C(=O)N[C@H](C(=O)N[C@@H](CC(C)C)C(=O)N[C@@H](C)C(=O)N[C@@H](CCC(N)=O)C(=O)N[C@H](C(N)=O)C(C)C)[C@@H](C)CC)[C@@H](C)CC)[C@@H](C)CC)C(C)C)C(C)C [compound 172] (H-IVLSLD[dV]PIKLK([AEEA-AEEA-γGlu-γGlu-C20 diacid])QILLKQERQK[Aib]QREQAEKNKQILAQV-NH2; N-terminus assumed)

- EC50 [nM] 0% HSA (cAMP, HTRF) [3]: > 100 nM
- Emax (%) (100% = Sauvagine at 100 nM) [3]: 0.4%
B1: peptide of SEQ ID NO: 16 (peptide)
peptide: IVLSLDVPIGLK([AEEA-AEEA-γGlu-C18 diacid])QKLLKQQRQRKERQQAEKNARILARV-NH2
modifications: N-terminus assumed
SMILES: CC[C@H](C)[C@H](N)C(=O)N[C@H](C(=O)N[C@@H](CC(C)C)C(=O)N[C@@H](CO)C(=O)N[C@@H](CC(C)C)C(=O)N[C@@H](CC(=O)O)C(=O)N[C@H](C(=O)N1CCC[C@H]1C(=O)N[C@H](C(=O)NCC(=O)N[C@@H](CC(C)C)C(=O)N[C@@H](CCCCNC(=O)COCCOCCNC(=O)COCCOCCNC(=O)CC[C@H](NC(=O)CCCCCCCCCCCCCCCCC(=O)O)C(=O)O)C(=O)N[C@@H](CCC(N)=O)C(=O)N[C@@H](CCCCN)C(=O)N[C@@H](CC(C)C)C(=O)N[C@@H](CC(C)C)C(=O)N[C@@H](CCCCN)C(=O)N[C@@H](CCC(N)=O)C(=O)N[C@@H](CCC(N)=O)C(=O)N[C@@H](CCCNC(=N)N)C(=O)N[C@@H](CCC(N)=O)C(=O)N[C@@H](CCCNC(=N)N)C(=O)N[C@@H](CCCCN)C(=O)N[C@@H](CCC(=O)O)C(=O)N[C@@H](CCCNC(=N)N)C(=O)N[C@@H](CCC(N)=O)C(=O)N[C@@H](CCC(N)=O)C(=O)N[C@@H](C)C(=O)N[C@@H](CCC(=O)O)C(=O)N[C@@H](CCCCN)C(=O)N[C@@H](CC(N)=O)C(=O)N[C@@H](C)C(=O)N[C@@H](CCCNC(=N)N)C(=O)N[C@H](C(=O)N[C@@H](CC(C)C)C(=O)N[C@@H](C)C(=O)N[C@@H](CCCNC(=N)N)C(=O)N[C@H](C(N)=O)C(C)C)[C@@H](C)CC)[C@@H](C)CC)C(C)C)C(C)C
